Experimental data reported in patent US12102637B2, “Pharmaceutical formulations for treating endometriosis, uterine fibroids, polycystic ovary syndrome or adenomyosis” (AbbVie Inc., priority 2017, dated 2024).

Columns and labels:
[1] = test system: premenopausal women with endometriosis with associated pain; assay: Rescue analgesic (opioid, naproxen) use in EM-I and EM-II; format: in vivo, human
Procedure: These effects were less consistently observed for women taking elagolix 150 mg QD. […] Reduction in pain may be reflected by reduction in pain medication, such as prescription opioids or non-steroidal anti-inflammatory agents (NSAIDs) that may be prescribed or found over the counter, for example, naproxen or acetaminophen. […] In this pooled analysis of rescue analgesic use in two phase 3 trials, compared with placebo: […] […] In EM-1 and EM-2, 59% and 60% of patients used an opioid rescue analgesic for pain at baseline. The opioid rescue analgesics used at baseline were predominantly hydrocodone/acetaminophen (HC/APAP) and codeine/APAP at strengths of 5/300-325 mg and 30/300-500 mg. In EM-1, of all patients on an opioid at baseline, 98% and 2% were on HC/APAP and codeine/APAP, respectively. In EM-2, of all patients on an opioid at baseline, 50% were on HC/APAP, 16% were on codeine/APAP, 3% were on codeine, and 32% were on tramadol/APAP.

[2] = Drug interaction studies: elagolix in the presence of co-administered drug; format: in vivo, human; details: for AUC Ratio (co-administration vs elagolix alone) / Cmax Ratio (co-administration vs elagolix alone): elagolix 150 mg single dose
Procedure: Drug interaction studies were performed with elagolix and other drugs that are likely to be co-administered and with drugs commonly used as probes for pharmacokinetic interactions.

menstrual bleeding = assay: Effects on menstrual bleeding patterns (electronic daily diary; bleeding/spotting days, intensity, amenorrhea, resumption of menses); format: in vivo, human; details: for Mean bleeding/spotting days in prior 28 days / Mean Intensity score: Baseline; for Mean Intensity score: scale 1 to 4 (1 = spotting, 4 = heavy), subjects with at least 1 day of bleeding or spotting in 28 day interval
mice = assay: 2-year carcinogenicity study in mice; format: in vivo; details: mouse, any dose
[3] = Compound A solubility experiment in water at 37° C. (gel formation); format: physicochemical
Procedure: The dotted line in FIG. 2 is the theoretical concentration based on the weights of the solids added and the volume of water. […] Deviation of the concentrations from the theoretical line is due to the volume expansion upon dissolution of large amount of solutes. Beyond that, the concentrations deviate from the theoretical line, but the solution is still clear and no visible gelling was observed. When more than 500 mg of Compound A solid was added, visible gelling was observed, therefore, concentrations were not determined.

[4] = test system: premenopausal women with endometriosis with associated pain; assay: Studies EM-I and EM-II: dysmenorrhea scores and Numeric Rating Scale (NRS) pain; format: in vivo, human
Excerpt: Women in these studies also provided a daily self-assessment of their endometriosis pain using the Numeric Rating Scale (NRS), on a scale ranging from 0 (no pain) to 10 (worst pain ever).

pKa of elagolix = format: physicochemical
[5] = target: T1, organic anion transporting polypeptide (OATP)1B1 (Homo sapiens, UniProt Q9Y6L6); assay: Elagolix as substrate of OATP1B1
T1 sequence (Q9Y6L6 1-691): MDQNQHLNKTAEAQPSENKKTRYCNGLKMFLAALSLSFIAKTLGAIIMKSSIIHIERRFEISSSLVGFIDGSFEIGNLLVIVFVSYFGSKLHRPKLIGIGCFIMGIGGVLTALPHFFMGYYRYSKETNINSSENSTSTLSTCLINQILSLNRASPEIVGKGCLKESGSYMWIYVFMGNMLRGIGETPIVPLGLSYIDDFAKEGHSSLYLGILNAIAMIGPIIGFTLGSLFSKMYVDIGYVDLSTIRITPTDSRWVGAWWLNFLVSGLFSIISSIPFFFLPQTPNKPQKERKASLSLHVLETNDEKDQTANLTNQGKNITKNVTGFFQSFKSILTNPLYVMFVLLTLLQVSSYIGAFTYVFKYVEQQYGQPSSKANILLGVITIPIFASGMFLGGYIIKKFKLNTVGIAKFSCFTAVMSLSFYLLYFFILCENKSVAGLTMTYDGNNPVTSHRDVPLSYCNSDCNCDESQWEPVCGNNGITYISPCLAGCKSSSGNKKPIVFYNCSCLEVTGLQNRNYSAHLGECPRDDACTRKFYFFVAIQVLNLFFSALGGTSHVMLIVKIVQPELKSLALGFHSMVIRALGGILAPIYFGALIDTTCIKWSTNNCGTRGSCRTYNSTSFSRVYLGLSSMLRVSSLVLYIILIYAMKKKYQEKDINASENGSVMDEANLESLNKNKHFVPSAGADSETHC
Excerpt: Elagolix is a substrate of CYP3A, P-gp, and organic anion transporting polypeptide (OATP)1B1. Clinically meaningful interactions are not expected when elagolix is co-administered with drugs that inhibit CYP3A or P-gp.

[6] = test system: luteinizing hormone (LH) and follicle-stimulating hormone (FSH); assay: Suppression of LH and FSH levels; format: in vivo, human; details: begins within hours of administration, reversible upon discontinuation
Excerpt: (I) Elagolix is an orally administered, short-acting, selective, non-peptide small molecule GnRH receptor antagonist that blocks endogenous GnRH signaling by binding competitively to GnRH receptors in the pituitary gland. […] LH and FSH suppression begins within hours of administration and is readily reversible upon discontinuation of elagolix.

rats = assay: Fertility and repeat-dose studies in rats; format: in vivo, rat
Excerpt: Based on pharmacologic actions of elagolix in humans a reversible effect on fertility may be expected in women.

[7] = Mutagenicity studies, in vitro and in vivo test systems
Excerpt: Mutagenicity studies have been performed with elagolix using in vitro and in vivo test systems.

[8] = Pharmacokinetic properties of elagolix in healthy subjects; details: human, in vivo
[9] = Ketoconazole 400 mg once daily, N 11
[10] = Rifampin 600 mg single dose, N 12

Structure (SMILES): COc1cccc(-c2c(C)n(Cc3c(F)cccc3C(F)(F)F)c(=O)n(C[C@H](NCCCC(=O)O)c3ccccc3)c2=O)c1F [Compound A, 4-((R)-2-[5-(2-fluoro-3-methoxy-phenyl)-3-(2-fluoro-6-trifluoromethyl-benzyl)-4-methyl-2,6-dioxo-3,6-dihydro-2H-pyrimidin-1-yl]-1-phenyl-ethylamino)-butyric acid]
- amount of opioid or naproxen rescue medication used vs baseline ([1]; 200 mg BID): reduced the amount of opioid (hydrocodone with acetaminophen) or naproxen rescue medication
- mean percent daily rescue opioid pill counts ([1]; pooled analysis, 200 mg BID, vs placebo): significant reduction in the mean percent daily pill counts
- percentage of days in which rescue opioid medication was taken ([1]; pooled analysis, both doses 150 QD and 200 BID, vs placebo): significant reduction in the percentage of days in which rescue opioid medication was taken
- AUC Ratio (co-administration vs elagolix alone) [2, 9]: 2.20
- Cmax Ratio (co-administration vs elagolix alone) [2, 9]: 1.77
- AUC Ratio (co-administration vs elagolix alone) ([2]; Rifampin 600 mg once daily): 1.65
- Cmax Ratio (co-administration vs elagolix alone) ([2]; Rifampin 600 mg once daily): 2.00
- AUC Ratio (co-administration vs elagolix alone) [2, 10]: 5.58
- Cmax Ratio (co-administration vs elagolix alone) [2, 10]: 4.37
- direction of the change in AUC of elagolix ([2]; concomitant rifampin): ↑ elaolix
- Mean bleeding/spotting days in prior 28 days (menstrual bleeding; Elagolix 150 mg Once Daily): 5.3 days
- Mean Intensity score (menstrual bleeding; Elagolix 150 mg Once Daily): 2.6
- Mean bleeding/spotting days in prior 28 days (menstrual bleeding; Elagolix 200 mg Twice Daily): 5.7 days
- Mean Intensity score (menstrual bleeding; Elagolix 200 mg Twice Daily): 2.5
- incidence of amenorrhea (menstrual bleeding; first six months of treatment, 150 mg once daily): 6-17%
- incidence of amenorrhea (menstrual bleeding; first six months of treatment, 200 mg twice daily): 13-52%
- incidence of amenorrhea (menstrual bleeding; second 6 months of treatment, 150 mg once daily): 11-15%
- incidence of amenorrhea (menstrual bleeding; second 6 months of treatment, 200 mg twice daily): 46-57%
- bleeding and spotting days and bleeding intensity (menstrual bleeding; up to 12 months, subjects who reported menstrual bleeding): dose-dependent reduction in mean number of bleeding and spotting days and bleeding intensity
- tumors, 2-year carcinogenicity study (mice): no increase in tumors
- Final pH ([3]; 12.2 mg added to 1.5 mL water): 9.66
- Measured Concentration ([3]; 12.2 mg added to 1.5 mL water): 7.45 mg/mL
- Observation ([3]; 12.2 mg added to 1.5 mL water): Clear solution
- Final pH ([3]; 28.7 mg added to 1.5 mL water): 9.96
- Measured Concentration ([3]; 28.7 mg added to 1.5 mL water): 17.3 mg/mL
- Observation ([3]; 28.7 mg added to 1.5 mL water): Clear solution
- Final pH ([3]; 49.8 mg added to 1.5 mL water): 10.10
- Measured Concentration ([3]; 49.8 mg added to 1.5 mL water): 28.0 mg/mL
- Observation ([3]; 49.8 mg added to 1.5 mL water): Clear solution
- Final pH ([3]; 100.4 mg added to 1.5 mL water): 10.16
- Measured Concentration ([3]; 100.4 mg added to 1.5 mL water): 60.8 mg/mL
- Observation ([3]; 100.4 mg added to 1.5 mL water): Clear solution
- Final pH ([3]; 202.5 mg added to 1.5 mL water): 10.18
- Measured Concentration ([3]; 202.5 mg added to 1.5 mL water): 111 mg/mL
- Observation ([3]; 202.5 mg added to 1.5 mL water): Clear solution
- Final pH ([3]; 295.6 mg added to 1.5 mL water): 10.20
- Measured Concentration ([3]; 295.6 mg added to 1.5 mL water): 149 mg/mL
- Observation ([3]; 295.6 mg added to 1.5 mL water): Clear solution
- Final pH ([3]; 503.2 mg added to 1.5 mL water): 10.17
- Measured Concentration ([3]; 503.2 mg added to 1.5 mL water): 170 mg/mL
- Observation ([3]; 503.2 mg added to 1.5 mL water): Clear solution
- Observation ([3]; 700.9 mg added to 1.5 mL water): Gel formation
- Observation ([3]; 990.0 mg added to 1.5 mL water): Gel formation
- Numeric Rating Scale (NRS) endometriosis pain scores ([4]; 150 mg QD and 200 mg BID, vs placebo at Month 3 and Month 6): highly statistically (p<0.001) significant reduction in NRS scores
- mean decreases from Baseline in dysmenorrhea scores ([4]; both elagolix treatment groups, Month 1 through Month 6, vs placebo): statistically significantly greater than placebo
- pKa (pKa of elagolix): ~7.89
- substrate of organic anion transporting polypeptide (OATP)1B1 [5]: substrate
- LH and FSH levels [6]: dose-dependent suppression
- effect in fertility study (rats; doses 50, 150, 300 mg/kg/day): no effect
- ovarian findings in repeat-dose study (rats; doses 600, 800 mg/kg/day): involution and a decrease in corpora lutea in ovaries
- mutagenic or clastogenic potential [7]: no evidence of a mutagenic or clastogenic potential
- Major route of elimination [8]: Hepatic metabolism
